This passage reports Emax, viability and Activity results from ChEMBL document CHEMBL5029143, “Discovery of New Potent Positive Allosteric Modulators of Dopamine D2 Receptors: Insights into the Bioisosteric Replacement of Proline to 3-Furoic Acid in the Melanostatin Neuropeptide” (J Med Chem, 2021).

In data set [1] the target is D(2) dopamine receptor (Homo sapiens) (UniProt P14416). The following applies: CHO, filed as positive allosteric modulator, dose 0.01 nM, time 10.0 min.
Data set [2] can be described thus: Neurotoxicity in human SH-SY5Y cells assessed as reduction in cell viability at 200 uM measured after 48 hrs by MTT reduction assay (Rvb= 100 +/- 2.79%). In kind it is cell-based. The following applies: read-out: Activity.
Data set [3] can be described thus: Neurotoxicity in human SH-SY5Y cells assessed as reduction in cell viability at 100 uM measured after 48 hrs by MTT reduction assay (Rvb= 100 +/- 2.79%). In kind it is cell-based. The following applies: read-out: Activity.
The test system of the next data set is SH-SY5Y. Briefly: Cytotoxicity against human differentiated SH-SY5Y cells assessed as reduction in cell viability at 100 uM measured after 48 hrs by phase contrast microscopic analysis. In kind it is cell-based.

Residues, ends and D or L forms follow the SMILES beside them.

D(2) dopamine receptor (Homo sapiens), sequence (P14416 whole entry): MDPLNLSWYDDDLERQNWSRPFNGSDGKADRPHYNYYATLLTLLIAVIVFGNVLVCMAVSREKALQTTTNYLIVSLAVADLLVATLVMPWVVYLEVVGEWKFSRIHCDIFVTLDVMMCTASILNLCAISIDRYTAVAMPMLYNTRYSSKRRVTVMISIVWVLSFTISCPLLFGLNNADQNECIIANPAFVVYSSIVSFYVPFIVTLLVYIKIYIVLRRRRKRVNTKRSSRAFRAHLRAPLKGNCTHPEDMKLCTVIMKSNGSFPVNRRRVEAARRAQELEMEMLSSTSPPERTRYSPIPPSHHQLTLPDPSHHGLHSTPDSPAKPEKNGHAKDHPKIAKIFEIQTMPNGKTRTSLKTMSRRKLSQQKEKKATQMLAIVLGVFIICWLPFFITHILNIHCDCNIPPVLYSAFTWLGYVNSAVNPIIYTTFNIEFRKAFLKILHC

The Emax is the size of the effect at its maximum, as opposed to the concentration needed. For `CC(C)C[C@H](NC(=O)[C@@H]1CCCN1)C(=O)NCC(N)=O` (H-Pro-Leu-Gly-NH2), the Emax in data set [1] is 93.6%.

Consider `CC(C)C[C@H](NC(=O)c1ccoc1)C(=O)NCC(N)=O`, for which the viability at 48 h, 200 µM in data set [2] stood at 86%.

As for `NCCc1cc(O)c(O)cc1O` [OXIDOPAMINE], in data set [3], the viability at 48 h, 100 µM amounted to 48.6%. In addition, the Activity result in the data set on SH-SY5Y is “Toxic”. In data set [2], the viability at 48 h, 200 µM is 4.06%.

On to `NCCc1ccc(O)c(O)c1` [DOPAMINE], for which the viability at 48 h, 100 µM in data set [3] turned out to be 96.9%. The viability at 48 h, 200 µM in data set [2] came out at 66.4%.
